The source of these data is US8722736B2, “Multi-dose concentrate esmolol with benzyl alcohol” (Baxter International Inc., priority 2007, dated 2014).

A short description of this data set: pH dependence of esmolol degradation. In kind it is physicochemical. An excerpt: The concentrate of present invention can also include a pharmaceutically acceptable buffer to aid in maintaining the pH in a range of from about 3.5 to about 7.0. Preferably, the pH is maintained between about 4.5 and about 5.5, more preferably between 4.9 and 5.1. […] Suitable buffers are those buffers that provide sufficient buffering capacity at the desired pH range and are pharmaceutically acceptable for injection into a patient. Examples of buffers useful in the present invention include, but are not limited to, acetate, glutamate, citrate, tartrate, benzoate, lactate, gluconate, phosphate and glycine and conjugate acids thereof. The concentration of the buffer can be from about 0.005 to about 2 M. In a preferred embodiment, the buffering agent comprises a combination of sodium acetate and glacial acetic acid. A preferred combination of buffers can include sodium acetate at from about 0.005 to about 0.3 M and glacial acetic acid at from about 0.05 to about 0.3 M.

As for `COC(=O)CCc1ccc(OCC(O)CNC(C)C)cc1.Cl` (stereo not shown) [esmolol, methyl3-[4-[2-hydroxy-3-(isopropylamino)propoxy]phenyl]propionate hydrochloride], the “pH at which esmolol is most stable” value is listed as “about 5.0”.
